Reference: PMC4498792, “Characterization of Novel Src Family Kinase Inhibitors to Attenuate Microgliosis” (PLoS ONE, 2015)
Read-outs that look alike come from different tables or passages of the source.

Key:
[1] = test system: microglial BV2 cells; assay: LDH release cell viability assay; format: cell-based, murine; details: 0.5nM to 50 μM, 24h
Method: (§1) BV2 cells were harvested and counted before stimulation. The cells were untreated (control), vehicle-treated (DMSO), or treated with increasing concentrations (0.5nM, 5nM, 50nM, 0.5 μM, 5μM and 50 μM) of LDDN-0003499, LDDN-0075935, LDDN-0125694 or LDDN-0127164 for 24h to assess toxicity and 1 hour to assess effects on basal kinase activity. For secretion analyses, cells were pretreated with drugs for 1 hour prior to stimulation with 50nM Aβ (overnight) or 25ng/mL LPS (overnight) in the presence of the drugs in serum free DMEM/F12. Media were collected for ELISA analysis and for LDH release viability assays. For signaling analyses, cells were pretreated with drugs for 1 hour prior to 5 minute stimulation with 1μM Aβ 1–42. […] Protein concentrations were determined using the Bradford method.
For the lactate dehydrogenase release (LDH) assay, media following the 24 hour cell stimulations were transferred onto a new 96-well plate and LDH concentrations assayed according to manufacturer instructions (Promega Corporation, Madison, WI). Background absorbance was subtracted from each condition. All absorbance values for the LDH assay were averaged and plotted ±SD.

[2] = test system: total protein phosphotyrosine levels in BV2 cells; assay: Total protein phosphotyrosine western blot (4G10), basal; format: cell-based, murine; details: 0.5nM to 50 μM, 1h, vs vehicle
Method: as §1
(§2) Cell lysates were resolved by SDS-PAGE on 10% polyacrylamide gels and transferred to PVDF membranes. […] Blots were washed followed by incubation with HRP-conjugated secondary antibodies and antibody binding was detected via enhanced chemiluminescence (GE Healthcare, Piscataway, NJ). Western blots were quantified using Adobe Photoshop software. […]

[3] = molecular target: T1, Lyn (Mus musculus, UniProt P25911); assay: Basal pLyn (Tyr 396) western blot in BV2 cells; format: cell-based, murine; details: 0.5nM to 50 μM, 1h
T1 construct: endogenous in cells; host or cells: BV2 murine microglial cell line
T1 sequence (P25911 whole entry): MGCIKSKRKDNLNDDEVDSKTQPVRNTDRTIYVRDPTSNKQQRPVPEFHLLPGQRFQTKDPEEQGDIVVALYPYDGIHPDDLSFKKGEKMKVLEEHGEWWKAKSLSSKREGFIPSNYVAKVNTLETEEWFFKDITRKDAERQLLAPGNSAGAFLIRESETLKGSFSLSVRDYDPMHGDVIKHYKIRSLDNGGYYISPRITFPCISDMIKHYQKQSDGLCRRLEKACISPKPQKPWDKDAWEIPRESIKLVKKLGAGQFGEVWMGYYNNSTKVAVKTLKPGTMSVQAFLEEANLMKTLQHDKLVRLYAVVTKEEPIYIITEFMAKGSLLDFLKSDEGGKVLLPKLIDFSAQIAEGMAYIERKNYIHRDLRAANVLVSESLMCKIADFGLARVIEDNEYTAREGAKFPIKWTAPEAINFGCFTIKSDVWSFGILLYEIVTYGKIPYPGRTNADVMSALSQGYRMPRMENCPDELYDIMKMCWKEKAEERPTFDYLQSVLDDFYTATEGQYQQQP
Method: as §1, §2

[4] = molecular target: T2, Src (Mus musculus, UniProt P05480); assay: Basal pSrc (Tyr 416) western blot in BV2 cells; format: cell-based, murine; details: 0.5nM to 50 μM, 1h
T2 construct: endogenous in cells; host or cells: BV2 murine microglial cell line
T2 sequence (P05480 whole entry): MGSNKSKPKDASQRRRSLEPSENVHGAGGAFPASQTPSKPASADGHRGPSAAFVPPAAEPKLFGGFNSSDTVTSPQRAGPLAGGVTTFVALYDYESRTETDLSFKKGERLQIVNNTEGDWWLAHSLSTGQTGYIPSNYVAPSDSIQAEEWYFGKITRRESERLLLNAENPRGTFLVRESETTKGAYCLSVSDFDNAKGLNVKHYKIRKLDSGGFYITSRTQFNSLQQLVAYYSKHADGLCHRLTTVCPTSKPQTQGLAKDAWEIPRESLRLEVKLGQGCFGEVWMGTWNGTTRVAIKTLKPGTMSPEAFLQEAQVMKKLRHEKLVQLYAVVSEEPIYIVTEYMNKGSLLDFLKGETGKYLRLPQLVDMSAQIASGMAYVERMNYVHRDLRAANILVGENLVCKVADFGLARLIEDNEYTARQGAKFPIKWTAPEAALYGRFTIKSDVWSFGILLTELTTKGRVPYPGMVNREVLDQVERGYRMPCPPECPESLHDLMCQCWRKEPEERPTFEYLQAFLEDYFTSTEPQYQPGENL
Method: as §1, §2

[5] = test system: ERK; assay: Basal pERK western blot in BV2 cells; format: cell-based, murine; details: 0.5nM to 50 μM, 1h
Method: as §1, §2

[6] = test system: JNK; assay: Basal pJNK western blot in BV2 cells; format: cell-based, murine; details: 0.5nM to 50 μM, 1h
Method: as §1, §2

[7] = test system: p38; assay: Basal p-p38 western blot in BV2 cells; format: cell-based, murine; details: 0.5nM to 50 μM, 1h
Method: as §1, §2

[8] = molecular target: T1, Lyn; assay: Aβ-stimulated pLyn western blot in BV2 cells; format: cell-based, murine
Method: (§3) BV2 cells were harvested and counted before stimulation. The cells were untreated (control), vehicle-treated (DMSO), or treated with increasing concentrations (0.5nM, 5nM, 50nM, 0.5 μM, 5μM and 50 μM) of […]-0125694 or LDDN-0127164 for 24h to assess toxicity and 1 hour to assess effects on basal kinase activity. […] Media were collected for ELISA analysis and for LDH release viability assays. For signaling analyses, cells were pretreated with drugs for 1 hour prior to 5 minute stimulation with 1μM Aβ 1-42. […] Protein concentrations were determined using the Bradford method. Cell lysates were resolved by SDS-PAGE on 10% polyacrylamide gels and transferred to PVDF membranes. Western blots were blocked with 3% bovine serum albumin and incubated in anti-phospho-[…][…]), anti-pSrc ([…]), anti-pERK, anti-pLyn ([…]), anti-pJNK, and anti-phospho-p38 primary antibodies with anti-α-tubulin, Src, ERK2, Lyn, JNK, and p38 antibodies used as the respective loading controls. Blots were washed followed by incubation with HRP-conjugated secondary antibodies and antibody binding was detected via enhanced chemiluminescence (GE Healthcare, Piscataway, NJ). Western blots were quantified using Adobe Photoshop software. Optical densities of bands were normalized using their appropriate loading controls and averaged (±) SD.

[9] = molecular target: T2, Src; assay: Aβ-stimulated pSrc western blot in BV2 cells; format: cell-based, murine; details: 1h pretreatment, 1 μM Aβ 1-42 for 5 minutes
Method: as §3

[10] = test system: ERK; assay: Aβ-stimulated pERK western blot in BV2 cells; format: cell-based, murine; details: 1h pretreatment, 1 μM Aβ
Method: as §3

[11] = test system: TNF-α secretion; assay: Aβ-stimulated TNF-α secretion ELISA in BV2 cells; format: cell-based, murine; details: 1h pretreatment, 50nM Aβ 1-42, 24h
Method: as §1
(§4) Media were collected from BV2 cells following 24 hour stimulations for ELISA analyses. Levels of mouse TNF-α, IL-6, and IL-1β in the media were determined using commercially available ELISA kits according to the manufacturer’s protocol (R&D Systems).

[12] = test system: IL-6 secretion; assay: Aβ-stimulated IL-6 secretion ELISA in BV2 cells; format: cell-based, murine; details: 1h pretreatment, 50nM Aβ 1-42, 24h
Method: as §1, §4

[13] = test system: TNF-α secretion; assay: LPS-stimulated TNF-α secretion ELISA in BV2 cells; format: cell-based, murine; details: 1h pretreatment, 25ng/ml LPS, 24h
Method: as §1, §4

[14] = Microsomal stability / intrinsic clearance assay, human; format: in vitro ADME; details: liver microsomes
Method: (§5) Briefly, the compound was incubated with human or mouse microsomes in the presence or absence of NADPH. […] Data were converted to percent remaining by dividing by the time zero concentration value. In vitro half-life was determined based on the slope of the (first-order) decay curve and this value was converted to intrinsic clearance (CLint). […] Briefly, Caco-2 cells were plated in Millipore 96-well transwell plates and allowed to differentiate for 21 days to form polarized, epithelial monolayers. For apical to basolateral (A→B) permeability, the compound was added to the apical (A) side and amount permeation determined on the basolateral (B) side. For B→A permeability, the compound was added on the basolateral (B) side. Upon completion of the incubation (2 hr), the receiver side buffer was removed for analysis by LC-MS/MS. From the samples, apparent permeability rate coefficients (Papp values) and efflux ratios were determined for the compound.

[15] = Microsomal stability / intrinsic clearance assay, mouse; format: in vitro ADME; details: liver microsomes
Method: as §5

[16] = Caco-2 bidirectional permeability assay; format: in vitro ADME; details: human
Method: as §5

[17] = test system: Caco-2 cells; assay: Caco-2 bidirectional permeability assay; format: in vitro ADME; details: Caco-2, 10 μM, 2 hr
Method: as §5

[18] = read-out: NADPH-Dependent CLint

COc1cc2ncnc(Nc3ccc(Cl)cc3Cl)c2cc1OC [LDDN-0003499]
toxicity to microglial BV2 cells (LDH release, cell viability) [1]: not toxic | total protein phosphotyrosine levels [2]: significantly decrease the total protein phosphotyrosine levels in a dose-dependent manner | active, phosphorylated Lyn (pLyn) protein levels [3]: dose-dependent decrease | active, phosphorylated Src (pSrc) protein levels [4]: dose-dependent decrease | phosphorylated ERK (pERK) protein levels [5]: no ability to alter | phosphorylated JNK (pJNK) protein levels [6]: no ability to alter | phosphorylated p38 (p-p38) protein levels [7]: no ability to alter | selectivity for Lyn versus Src in the Aβ stimulation paradigm ([8]; 50nM (pLyn) vs 500nM (pSrc)): tenfold | concentration sufficient to significantly attenuate the Aβ stimulated increase in pLyn levels ([8]; 1h pretreatment, 1 μM Aβ 1-42 for 5 minutes): 50 nM | concentration required to attenuate the Aβ stimulated increase in pSrc [9]: 500 nM | pERK levels following Aβ stimulation [10]: no inhibition | Aβ stimulated TNF-α secretion [11]: dose-dependently inhibited | concentration at which inhibition of Aβ stimulated TNF-α secretion begins [11]: 500 nM | Aβ stimulated IL-6 secretion [12]: dose-dependently inhibited | LPS stimulated TNF-α secretion [13]: attenuated | half-life at 1 μM ([14]; read-out: NADPH-Depend. T1/2): 14.1 min | microsomal CLint at 1 μM [14, 18]: 98.4 µL/min/mg | microsomal CLint at 1 μM ([14]; read-out: NADPH-Free CLint): 21.2 µL/min/mg | half-life at 1 μM ([14]; read-out: NADPH-Free T1/2): 65 min | half-life at 1 μM ([15]; read-out: NADPH-Depend. T1/2): 16.6 min | microsomal CLint at 1 μM [15, 18]: 83.3 µL/min/mg | microsomal CLint at 1 μM ([15]; read-out: NADPH-Free CLint): 15.8 µL/min/mg | half-life at 1 μM ([15]; read-out: NADPH-Free T1/2): 88 min | efflux ratio at 2 hr, 10 μM ([16]; Caco-2, 10 μM, 2 hr, read-out: Efflux Ratio Papp(B→A) / Papp(A→B)): 0.85 | Papp A→B at 2 hr, 10 μM ([16]; Caco-2, 10 μM, 2 hr, read-out: mean A→B Papp): 19 ×10⁻⁶ cm/s | Papp B→A at 2 hr, 10 μM ([16]; Caco-2, 10 μM, 2 hr, read-out: mean B→A Papp): 16.2 ×10⁻⁶ cm/s | Caco-2 permeability, comment [17]: high permeability

O=C(Nc1cc(Cl)ccc1Cl)c1noc2c1CCC2 [LDDN-0075935]
toxicity to microglial BV2 cells (LDH release, cell viability) [1]: not toxic | total protein phosphotyrosine levels [2]: no effect | active, phosphorylated Lyn (pLyn) protein levels [3]: not able to attenuate | active, phosphorylated Src (pSrc) protein levels [4]: not able to attenuate | phosphorylated ERK (pERK) protein levels [5]: stimulated increased pERK protein levels at the highest drug concentration | phosphorylated JNK (pJNK) protein levels [6]: did not attenuate | phosphorylated p38 (p-p38) protein levels [7]: did not attenuate

CC(=O)CC(c1ccccc1)c1c(O)c2ccccc2oc1=O (stereo not drawn) [warfarin, reference compound]
Papp A→B at 2 hr, 10 μM ([16]; Caco-2): 27.1 ×10⁻⁶ cm/s | Papp B→A at 2 hr, 10 μM ([16]; Caco-2): 10.4 ×10⁻⁶ cm/s
